According to BindingDB's records for doi:10.1016/j.bmc.2013.08.025 (Novartis Institutes For Biomedical Research, 2013):
Values belong to the compound of their own block, whether it stands above or below them.

Columns and labels:
[1] = Antagonist activity at CRTh2 receptor in human isolated eosinophil assessed as inhibition of 11-Dehydro-TXB2-induced shape change after 5 mins by flow cytometry
[2] = Antagonist activity at CRTh2 receptor in human isolated eosinophil assessed as inhibition of delta12-PGD2-induced shape change after 5 mins by flow cytometry
[3] = Antagonist activity at CRTh2 receptor in human whole blood assessed as inhibition of PGD2-induced eosinophil shape change after 5 mins by flow cytometry
[4] = Antagonist activity at CRTh2 receptor in human isolated eosinophil assessed as inhibition of eotaxin-induced shape change after 5 mins by flow cytometry
[5] = Antagonist activity at CRTh2 receptor in human isolated eosinophil assessed as inhibition of DK-PGD2-induced shape change after 5 mins by flow cytometry
[6] = biological target: T1, Prostaglandin D2 receptor 2 (Homo sapiens, UniProt Q9Y5Y4); assay: Antagonist activity at CRTh2 receptor in human isolated eosinophil assessed as inhibition of DK-PGD2-induced shape change after 5 mins by flow cytometry
T1 sequence (Q9Y5Y4 whole entry): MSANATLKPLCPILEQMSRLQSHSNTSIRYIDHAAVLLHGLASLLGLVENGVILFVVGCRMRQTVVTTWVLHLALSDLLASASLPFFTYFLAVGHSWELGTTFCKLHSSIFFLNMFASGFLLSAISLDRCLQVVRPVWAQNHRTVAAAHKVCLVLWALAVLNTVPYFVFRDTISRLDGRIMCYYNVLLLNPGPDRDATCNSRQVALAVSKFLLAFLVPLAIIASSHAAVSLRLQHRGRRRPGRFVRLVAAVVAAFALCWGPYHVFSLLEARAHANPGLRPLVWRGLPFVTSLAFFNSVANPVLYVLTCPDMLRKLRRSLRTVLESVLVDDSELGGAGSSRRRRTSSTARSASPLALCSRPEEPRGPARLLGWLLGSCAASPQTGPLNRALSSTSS

IC50 [1]: 4 nM
IC50 [2]: 4 nM
IC50 [3]: 102 nM
IC50 [4]: > 10000 nM
Structure (SMILES): Cc1c(CC(=O)O)c2cccnc2n1Cc1ccc(S(C)(=O)=O)cc1

IC50 [5]: 23 nM
Structure (SMILES): Cc1c(CC(=O)O)c2cccnc2n1Cc1ccc(Cl)cc1

IC50 [6]: 24 nM
Structure (SMILES): Cc1c(CC(=O)O)c2cccnc2n1Cc1ccc([N+](=O)[O-])cc1

IC50 [5]: 51 nM
Structure (SMILES): Cc1c(CC(=O)O)c2cccnc2n1Cc1ccc([S+](C)[O-])cc1 (configuration not stated)
